In patent publication US8912202B2, “N-(benzimimdazol-2-yl)-cyclopropane carboxamides as lysophosphatidic acid antagonists” (Merck Patent GmbH, priority 2011, dated 2014):

Target: T1, LPA2R (Homo sapiens, UniProt Q9HBW0)
T1 construct: expressed in transfected cells; host or cells: U2OS
Test: LPA2R-Calciumflux assay (FLIPR, intracellular calcium mobilisation after LPA)
Assay type: cell-based
Settings: U2OS cells recombinant expressing LPA2R; antagonism of LPA-induced calcium flux; racemate of the two trans enantiomers unless marked enantiomer
From the text: The assay detects intra cellular calcium which is generated by cells upon activation of the LPA2 receptor by its ligand LPA. This transient calcium mobilization can be monitored using a commercial calcium detection kit (e.g. from Molecular Devices). The main component of such a kit is a dye, which becomes fluorescent when calcium is present—a transient fluorescence signal after addition of a ligand to a test well are the result. Readers like the FLIPR (Molecular Devices) can be used to monitor such transient “Ca-flux” signals.
The signals are calculated according to peak maximum minus base line.
Compounds which are antagonists of LPA lead to a decreased mobilisation of intracellular calcium and thus to a lower signal. The assay is performed in microplates (384 wells per plate).
LPA2R-Calciumflux Assay Protocol
The assay is run according to the following procedure:
50 uL seed cells (10000 cells/well in DMEM buffer)
• Incubate 24 h at 37° C., 10% CO2 • aspirate medium 50 uL add calcium dye 1×HBSS/HEPES buffer • incubate 1 h at 37° C. (“loading”) • equilibrate 10 min at RT 5 uL add compounds in HEPES buffer • shake 10 sec. at 1000 rpm • incubate 15 min at RT 20 uL add LPA (in the FLIPR Tetra) in Krebs-buffer/BSA & measurement
The cells are seeded in DMEM buffer (DMEM, 10% FCS, 10 mM HEPES, 1% Pen/Strep).
Dye loading is done in HBSS/HEPES buffer (100 mL 10×HBSS+20 mL 1M HEPES+880 mL water, pH 7.4)
The LPA is added in Krebs/BSA buffer (120 mM NaCl, 5 mM KCl, 0.62 mM MgSO4, 1.8 mM CaCl2, 10 mM HEPES, 6 mM D(+)-Glucose, 0.2% BSA, pH 7.4).
The compounds are pre-diluted in HEPES buffer (20 mM, pH 7.4), whereby the final DMSO content in the assay is kept at 1%. The compounds are pre-diluted in order to generate dose response series on the microplates. The dose response series consist of 10 concentrations for each compound from 30 uM final to 1 nM final. From all compound wells the resulting signals are referred to control wells (located on each plate besides the compound wells) in terms of % activity.
From these % activity values—along with the corresponding compound concentrations—IC50 values are fitted for each compound using standard fitting programs such as Graphpad Prism. Here the method “log(inhibitor) vs. response—Variable slope” is used.

T1 sequence (Q9HBW0 whole entry): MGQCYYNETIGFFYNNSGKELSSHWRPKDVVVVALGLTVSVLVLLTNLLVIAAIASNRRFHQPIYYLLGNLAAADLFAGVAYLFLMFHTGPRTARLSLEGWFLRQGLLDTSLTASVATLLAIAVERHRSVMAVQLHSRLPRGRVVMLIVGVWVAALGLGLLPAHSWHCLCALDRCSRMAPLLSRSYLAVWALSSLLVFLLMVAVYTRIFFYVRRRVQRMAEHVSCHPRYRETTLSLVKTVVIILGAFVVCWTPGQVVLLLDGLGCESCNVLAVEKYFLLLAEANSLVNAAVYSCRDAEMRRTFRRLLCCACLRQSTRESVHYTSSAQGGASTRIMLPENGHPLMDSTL

IC50 [µM]	SMILES
1 to 10	O=C(OCc1ccccc1)C1CCN(CNc2cccc3[nH]c(NC(=O)C4CC4c4ccccc4)nc23)C1 (racemic) [1-({2-[(2-Phenyl-cyclopropane-carbonyl)-amino]-1H-benzoimidazol-4-ylamino)-methyl)-pyrrolidine-3-carboxylic acid benzyl ester]
0.1 to 1	O=C(Nc1nc2ccccc2[nH]1)C1C(c2ccccc2)C1(F)F (racemic) [2,2-Difluoro-3-phenyl-cyclopropane-carboxylic acid (1H-benzoimidazol-2-yl)-amide]
0.01 to 0.1	O=C(Nc1nc2ccc(Cl)cc2[nH]1)C1C(c2ccccc2)C1(F)F (racemic) [2,2-Difluoro-3-phenyl-cyclopropane-carboxylic acid (6-chloro-1H-benzoimidazol-2-yl)-amide]
0.1 to 1	N#Cc1ccc2nc(NC(=O)C3C(c4ccccc4)C3(F)F)[nH]c2c1 (racemic) [2,2-Difluoro-3-phenyl-cyclopropane-carboxylic acid (6-cyano-1H-benzoimidazol-2-yl)-amide]
0.1 to 1	O=C(Nc1nc2ccc(C(F)(F)F)cc2[nH]1)C1C(c2ccccc2)C1(F)F (racemic) [2,2-Difluoro-3-phenyl-cyclopropane-carboxylic acid (6-trifluoromethyl-1H-benzoimidazol-2-yl)-amide]
> 10	CC1(C)C(C(=O)Nc2nc3ccccc3[nH]2)C1c1ccccc1 (racemic) [2,2-Dimethyl-3-phenyl-cyclopropane-carboxylic acid (1H-benzoimidazol-2-yl)-amide]
> 10	CC1(C)C(C(=O)Nc2nc3ccc(Cl)cc3[nH]2)C1c1ccccc1 (racemic) [2,2-Dimethyl-3-phenyl-cyclopropane-carboxylic acid (6-chloro-1H-benzoimidazol-2-yl)-amide]
> 10	CC1(C)C(C(=O)Nc2nc3ccc(C#N)cc3[nH]2)C1c1ccccc1 (racemic) [2,2-Dimethyl-3-phenyl-cyclopropane-carboxylic acid (6-cyano-1H-benzoimidazol-2-yl)-amide]
> 10	CC1(C)C(C(=O)Nc2nc3ccc(C(F)(F)F)cc3[nH]2)C1c1ccccc1 (racemic) [2,2-Dimethyl-3-phenyl-cyclopropane-carboxylic acid (6-trifluoromethyl-1H-benzoimidazol-2-yl)-amide]
0.1 to 1	O=C(Nc1nc2ccccc2[nH]1)C1CC1c1cccc(Cl)c1Cl (racemic) [2-(2,3-Dichloro-phenyl)-cyclopropane-carboxylic acid (1H-benzoimidazol-2-yl)-amide]
> 10	O=C(Nc1nc2ccccc2[nH]1)C1CC1c1c(Cl)cccc1Cl (racemic) [2-(2,6-Dichloro-phenyl)-cyclopropane-carboxylic acid (1H-benzoimidazol-2-yl)-amide]
0.01 to 0.1	O=C(Nc1nc2ccccc2[nH]1)C1CC1c1ccccc1Cl (racemic) [2-(2-Chloro-phenyl)-cyclopropane-carboxylic acid (1H-benzoimidazol-2-yl)-amide]
0.01 to 0.1	N#Cc1ccc2nc(NC(=O)C3CC3c3ccccc3Cl)[nH]c2c1 (racemic) [2-(2-Chloro-phenyl)-cyclopropane-carboxylic acid (6-cyano-1H-benzoimidazol-2-yl)-amide]
0.01 to 0.1	O=C(Nc1nc2ccc(C(F)(F)F)cc2[nH]1)C1CC1c1ccccc1Cl (racemic) [2-(2-Chloro-phenyl)-cyclopropane-carboxylic acid (6-trifluoromethyl-1H-benzoimidazol-2-yl)-amide]
0.1 to 1	CN(C)c1ccccc1C1CC1C(=O)Nc1nc2ccccc2[nH]1 (racemic) [2-(2-Dimethylamino-phenyl)-cyclopropane-carboxylic acid (1H-benzoimidazol-2-yl)-amide]
0.1 to 1	O=C(Nc1nc2ccccc2[nH]1)C1CC1c1ccccc1F (racemic) [2-(2-Fluoro-phenyl)-cyclopropane-carboxylic acid (1H-benzoimidazol-2-yl)-amide]

IC50 [µM]	SMILES
> 10	O=C(Nc1nc2ccccc2[nH]1)C1CC1c1ccccc1C(F)(F)F (racemic) [2-(2-Trifluoromethyl-phenyl)-cyclopropane-carboxylic acid (1H-benzoimidazol-2-yl)-amide]
0.01 to 0.1	O=C(Nc1nc2ccccc2[nH]1)C1CC1c1cccc(Br)c1 (racemic) [2-(3-Bromo-phenyl)-cyclopropane-carboxylic acid (1H-benzoimidazol-2-yl)-amide]
0.1 to 1	O=C(Nc1nc2ccccc2[nH]1)C1CC1c1cccc(Cl)c1 (racemic) [2-(3-Chloro-phenyl)-cyclopropane-carboxylic acid (1H-benzoimidazol-2-yl)-amide]
0.1 to 1	N#Cc1cccc(C2CC2C(=O)Nc2nc3ccccc3[nH]2)c1 (racemic) [2-(3-Cyano-phenyl)-cyclopropane-carboxylic acid (1H-benzoimidazol-2-yl)-amide]
0.1 to 1	CN(C)c1cccc(C2CC2C(=O)Nc2nc3ccccc3[nH]2)c1 (racemic) [2-(3-Dimethylamino-phenyl)-cyclopropane-carboxylic acid (1H-benzoimidazol-2-yl)-amide]
0.01 to 0.1	O=C(Nc1nc2ccccc2[nH]1)C1CC1c1cccc(F)c1 (racemic) [2-(3-Fluoro-phenyl)-cyclopropane-carboxylic acid (1H-benzoimidazol-2-yl)-amide]
< 0.01	O=C(Nc1nc2cc(Cl)cnc2[nH]1)C1CC1c1cccc(F)c1 (racemic) [2-(3-Fluoro-phenyl)-cyclopropane-carboxylic acid (6-chloro-3H-imidazo[4,5-b]pyridin-2-yl)-amide]
< 0.01	N#Cc1ccc2nc(NC(=O)C3CC3c3cccc(F)c3)[nH]c2c1 (racemic) [2-(3-Fluoro-phenyl)-cyclopropane-carboxylic acid (6-cyano-1H-benzoimidazol-2-yl)-amide]
> 10	COc1cccc(C2CC2C(=O)Nc2nc3ccccc3[nH]2)c1 (racemic) [2-(3-Methoxy-phenyl)-cyclopropane-carboxylic acid (1H-benzoimidazol-2-yl)-amide]
0.01 to 0.1	O=C(Nc1nc2ccccc2[nH]1)C1CC1c1cccc([N+](=O)[O-])c1 (racemic) [2-(3-Nitro-phenyl)-cyclopropane-carboxylic acid (1H-benzoimidazol-2-yl)-amide]
> 10	O=C(Nc1nc2ccccc2[nH]1)C1CC1c1ccc(Cl)cc1 (racemic) [2-(4-Chloro-phenyl)-cyclopropane-carboxylic acid (1H-benzoimidazol-2-yl)-amide]
1 to 10	CN(C)c1ccc(C2CC2C(=O)Nc2nc3ccccc3[nH]2)cc1 (racemic) [2-(4-Dimethylamino-phenyl)-cyclopropane-carboxylic acid (1H-benzoimidazol-2-yl)-amide]
0.01 to 0.1	O=C(Nc1nc2ccccc2[nH]1)C1CC1c1ccc(F)cc1 (racemic) [2-(4-Fluoro-phenyl)-cyclopropane-carboxylic acid (1H-benzoimidazol-2-yl)-amide]
1 to 10	COc1ccc(C2CC2C(=O)Nc2nc3ccccc3[nH]2)cc1 (racemic) [2-(4-Methoxy-phenyl)-cyclopropane-carboxylic acid (1H-benzoimidazol-2-yl)-amide]
1 to 10	O=C(Nc1nc2ccccc2[nH]1)C1CC1c1ccc(C(F)(F)F)cc1 (racemic) [2-(4-Trifluoromethyl-phenyl)-cyclopropane-carboxylic acid (1H-benzoimidazol-2-yl)-amide]
